The results in this text go back to patent US20240327458A1, “MACROCYCLIC PEPTIDOMIMETIC PROTEASE INHIBITOR AND USE THEREOF” (TENCENT TECHNOLOGY (SHENZHEN) COMPANY LIMITED, priority 2022, published 2024).

Where two headings read alike, the source gives them in different places.

One series deals with M^pro (Severe acute respiratory syndrome coronavirus 2 (2019-nCoV) (SARS-CoV-2), UniProt P0DTD1). Particulars: read-out: M^pro IC50; GST-AVLQ-3Clpro-GP-6His; substrate MCA-AVLQSGFR-Lys(Dnp)-Lys-NH2; Ex320/Em405.
For series [1] the following is noted: rcm bond, Grubbs 2nd generation catalyst, dichloromethane, 25.0 °C.

Source text for M^pro: An objective of this experiment is to detect the in vitro inhibitory activity against M^pro of the compound of the present disclosure.
Experimental steps and methods: • 1. Prepare a 1× buffer solution (modified Tris buffer solution). • 2. Transfer a to-be-tested compound to the assay plate with Echo's 100% DMSO solution to a final DMSO content of 0.5%. • 3. Prepare a mixed protein solution: Add GST-AVLQ-3Clpro-GP-6His in a 1× assay buffer solution to support the mixed protein solution. • 4. […] Add 10 μL of 2× mixed protein solution in the assay plate, centrifuge for 30s, shake for 30s, and incubate the solution at room temperature for 15 min. • 6. Add 10 μL of 2× mixed substrate solution in the assay plate, centrifuge for 30, and shake for 30s. • 7. Read the data dynamically on Synergy (Ex320/Em405).

As usually defined, the IC50 is the concentration that gives 50% inhibition. Consider `CC1(C)[C@@H]2[C@H]3C(=O)N[C@H](C#N)CCC(=O)NCCCCCC[C@H](NC(=O)C(F)(F)F)C(=O)N3C[C@@H]21` [Compound 7, N-((3S, 14S, 17aS, 18aR, 18bS)-3-cyano-18,18-dimethyl-1,6,15-trioxyeicosanylhydrocyclopropyl[3,4]pyrrole[1,2-a][1,4,9]triazacycloheptanedioic acid-14-yl)-2,2,2-trifluoroacetamide], for which the IC50 at M^pro came to 16 nM. In turn, `COC(=O)[C@@H]1CCC(=O)NCCCC=CC[C@H](NC(=O)OC(C)(C)C)C(=O)N2C[C@@H]3CCC[C@@H]3[C@H]2C(=O)N1` gave a ring closure, yield of all isomers in series [1] (from C=CCCCNC(=O)CC[C@H](NC(=O)[C@@H]1[C@H]2CCC[C@H]2CN1C(=O)[C@H](CC=C)NC(=O)OC(C)(C)C)C(=O)OC, 3.75 mM, 16.0 h) of 94%.

In the case of `COC(=O)[C@@H]1CCC(=O)NCCCC=CC[C@H](NC(=O)OC(C)(C)C)C(=O)N2C[C@H]3[C@@H]([C@H]2C(=O)N1)C3(C)C`, in series [1] (from C=CCCCNC(=O)CC[C@H](NC(=O)[C@@H]1[C@@H]2[C@H](CN1C(=O)[C@H](CC=C)NC(=O)OC(C)(C)C)C2(C)C)C(=O)OC, 3.53 mM, 16.0 h), the ring closure, yield of all isomers is 100%. `COC(=O)[C@@H]1CCC(=O)NCCCC=CCC[C@H](NC(=O)OC(C)(C)C)C(=O)N2C[C@H]3[C@@H]([C@H]2C(=O)N1)C3(C)C`: the ring closure, yield of all isomers in series [1] (from C=CCCCNC(=O)CC[C@H](NC(=O)[C@@H]1[C@@H]2[C@H](CN1C(=O)[C@H](CCC=C)NC(=O)OC(C)(C)C)C2(C)C)C(=O)OC, 1.73 mM, 16.0 h) was determined as 86%.

`COC(=O)[C@@H]1CCC(=O)NCCC=Cc2cccc(c2)[C@H](NC(=O)OC(C)(C)C)C(=O)N2C[C@H]3[C@@H]([C@H]2C(=O)N1)C3(C)C` gave a ring closure, yield of all isomers in series [1] (from C=CCCNC(=O)CC[C@H](NC(=O)[C@@H]1[C@@H]2[C@H](CN1C(=O)[C@@H](NC(=O)OC(C)(C)C)c1cccc(C=C)c1)C2(C)C)C(=O)OC, 3.55 mM, 16.0 h) of 20%. In series [1] (from C=CCCCNC(=O)CC[C@H](NC(=O)[C@@H]1[C@@H]2[C@H](CN1C(=O)[C@H](CCCC=C)NC(=O)OC(C)(C)C)C2(C)C)C(=O)OC, 4.53 mM, 2.0 h), `COC(=O)[C@@H]1CCC(=O)NCCCC=CCCC[C@H](NC(=O)OC(C)(C)C)C(=O)N2C[C@H]3[C@@H]([C@H]2C(=O)N1)C3(C)C` displayed a ring closure, yield of all isomers of 60%. `CC1(C)[C@@H]2[C@H]3C(=O)N[C@H](C#N)CCC(=O)NCCCCCCCC[C@H](NC(=O)C(F)(F)F)C(=O)N3C[C@@H]21` [Compound 6, N-((3S, 16S, 19aS, 20aR, 20bS)-3-cyano-20,20-dimethyl-1,6,17-trioxydocosanylhydrocyclopropa[3,4]pyrrole[1,2-a][1,4,9]triazacyclononanedioic acid-16-yl)-2,2,2-trifluoroacetamide]: the IC50 on M^pro came to 379 nM. Regarding `CC1(C)[C@@H]2[C@H]3C(=O)N[C@H](C#N)CCC(=O)NCCC/C=C\CC[C@H](NC(=O)C(F)(F)F)C(=O)N3C[C@@H]21` [Compound 4, N-((3S, 15S, 18aS, 19aR, 19bS, Z)-3-cyano-19,19-dimethyl-1,6,16-trioxo-1,3,4,5,6,7,8,9,10,13,14,15,16,18,18a,19,19a,19b-octadecahydro-2H-cyclopropane[3,4]pyrrole[1,2-a][1,4,9]triazacyclooctadecene-15-yl)-2,2,2-trifluoroacetamide], on M^pro, the IC50 came to 411 nM. Turning to `COC(=O)[C@@H]1CCC(=O)N(C)CCCC=CCC[C@H](NC(=O)OC(C)(C)C)C(=O)N2C[C@H]3[C@@H]([C@H]2C(=O)N1)C3(C)C`, in series [1] (from C=CCCCN(C)C(=O)CC[C@H](NC(=O)[C@@H]1[C@@H]2[C@H](CN1C(=O)[C@H](CCC=C)NC(=O)OC(C)(C)C)C2(C)C)C(=O)OC, 5.1 mM, 16.0 h), the ring closure, yield of all isomers turned out to be 94%. Consider `CC1(C)[C@@H]2[C@H]3C(=O)N[C@H](C#N)CCC(=O)NCCCCCCC[C@H](NC(=O)C(F)(F)F)C(=O)N3C[C@@H]21` [Compound 1, N-((3S, 15S, 18aS, 19aR, 19bS)-3-cyano-19,19-dimethyl-1,6,16-trioxyeicosanylhydro-2H-cyclopropyl[3,4]pyrrole[1,2-a][1,4, 9]triazocyclooctadecyl-15-yl)-2,2,2-trifluoroacetamide], for which, on M^pro, the IC50 stood at 254 nM. As to `CC1(C)[C@@H]2[C@H]3C(=O)N[C@H](C#N)CCC(=O)NCCC/C=C/CCC[C@H](NC(=O)C(F)(F)F)C(=O)N3C[C@@H]21` [Compound 8b, N-((3S, 16S, 19aS, 20aR, 20bS, Z/E)-3-cyano-20,20-dimethyl-1,6,17-trioxo-1,2,3,4,5,6,7,8,9,10,13,14,15,16,17,19,19a,20,20a,20b-eicosanylhydrocyclopropyl[3,4]pyrrole[1,2-a][1,4,9]triazacyclonon-16-yl)-2,2,2-trifluoroacetamide], the IC50 on M^pro worked out at 138 nM.
